Patent EP3108900B1, “PROTOTYPE SYSTEMS OF THERANOSTIC BIOMARKERS FOR IN VIVO MOLECULAR MANAGEMENT OF CANCER” (EPOS-Iasis Research and Development, Ltd, priority 2015, dated 2016)
Values joined by “and” are separate entries in the source; they are usually repeats but may differ in a detail not shown here. Identical values can stand only once. Like-named read-outs stand apart in the source and are kept apart here.

Experiments:
[1] = test system: colon cancer cells (SW480); assay: antiproliferative effect / cell viability; assay type: cell-based; settings: control = no drug
Protocol: The antiproliferative effect of the following compounds A1F, B1F, C1F and D1F were tested on colon cancer cells (SW480). [drawing 94] [drawing 95]

SW620 cells = assay: label-free temporal and quantitative pharmacoproteomics; assay type: cell-based
Protocol: The following experiment was performed to uncover new biomarkers of therapeutic response to the anticancer efficacy of the natural product based theranostic systems of the present invention.
In this experiment, SW620 cells were seeded in T75 flasks in DMEM, 10% FBS and 1% Penicillin/Streptomycin (all from Gibco). The cells were allowed to attach overnight. The following day the medium was removed and fresh medium containing 0.04 mM of either γT (γ-tocotrienol) or DCE-γT (diluted in absolute ethanol; final concentration of ethanol in the medium was 0.1% v/v). For control untreated cells, equal amount of fresh medium (containing ethanol at 0.1% v/v final concentration) was added.
SW620 cells were harvested after 24, 36 and 48 hrs of incubation with γT or DCE-γT. Briefly, the medium was removed and the cells were rinsed three times with PBS (without Ca, Mg) (Gibco). Fresh PBS was added and the cells were scraped off the flasks and collected in tubes. Collected cells were centrifuged at 1000rpm (165g) for 3min and the supernatant was removed. The cell pellet was re-suspended in PBS and the centrifugation step was repeated. The supernatant was removed and the cells in minimal residual PBS were snap-freezed in liquid nitrogen. Once frozen the cells were stored in -80°C until the proteomics analysis.
In terms of data analysis, a threshold of relative protein abundance equal or greater than 1.5-fold increase or decrease was set.

[2] = molecular target: T1, EGFR membrane tyrosine kinase receptor (Homo sapiens, UniProt P00533); assay: FRET assay in cells transfected with EGFR-Luc plasmid; assay type: cell-based; settings: EGFR negative colon cancer cells transiently transfected with EGFR-Luc plasmid
T1 construct: expressed in transfected cells
Protocol: The fluorescent esters of the natural products disclosed herein can also be used as molecular probes for deciphering the interaction between the natural product and potential biomarkers in cancer cells. EGFR negative colon cancer cells were transiently transfected with a rationally designed EGFR-Luc plasmid and incubated with the DCE-γ-Tocotrienol ester. Bioluminescence of the Luciferase (donor) was assessed against the fluorescence signal of either the DCE-γ-Tocotrienol ester or the hydrolysis product (acceptor).

[3] = in vivo biodistribution, quantitative fluorescence imaging
EGFR-Luc and Grb2-GFP = EGFR-Luc and Grb2-GFP (Homo sapiens, UniProt P00533); assay: BRET assay of EGFR-Luc and Grb2-GFP interaction; assay type: cell-based; settings: interaction between EGFR-Luc and Grb2-GFP
LoVo cells = assay: MTT colorimetric assay (antiproliferative efficacy); assay type: cell-based
[4] = SW620 cells, 0.04 mM, versus control untreated cells

## C=CC(=O)Nc1cc2c(Nc3ccc(C(C)C)cc3)ncnc2cc1NC(=O)CCl [B1F]
[1]
  viability of the cells with respect to the control: reduce the viability of the cells

## C=CC(=O)Nc1cc2c(Nc3ccc(C(C)(C)C)cc3)ncnc2cc1NC(=O)CCl [D1F]
[1]
  viability of the cells with respect to the control: reduce the viability of the cells

## dicarboxylic ester of γ-Tocotrienol [DCE-γT]
SW620 cells
  decrease of DNA repair factors: 2 fold
  decrease of protein level of histone H3 types: at least 6 fold
  decrease of protein level of snRNPs / certain snRNP components: 2 fold
  increase of histone H2A.Z: 23 fold
  increase of histone H3 forms: ≥ 1.8 fold
  number of proteins whose expression was elicited: 37 proteins and 30 proteins and 29 proteins
  protein modulation: statistically significant modulation of key proteins
[2]
  BRET signal: amplified FRET signal
[3]; in vivo biodistribution, uptake as a function of time
  time of peak of fluorescent signal: 30 min
[3]; mouse brain parenchyma cells, data not shown
  brain uptake / blood brain barrier passage: able to pass the blood brain barrier
EGFR-Luc and Grb2-GFP
  activation within the EGFR axis (BRET signals): neither the ester nor the hydrolysis products elicit any unwanted activation

## CC(C)=CCC/C(C)=C/CC/C(C)=C/CC[C@]1(C)CCc2cc(O)c(C)c(C)c2O1 [γT, γ-tocotrienol, reference compound]
SW620 cells; [4]
  decrease of protein level of histone H2B types: 1.8 fold
  decrease of protein level of histone H3 types: at least 3.7 fold
  decrease of protein level of hnRNPs: at least 2 fold
  decrease of protein level of snRNPs / certain snRNP components: 1.8 fold
  increase of histone H2A.Z: 24 fold
  increase of the level of RNA helicases: ≥ 1.9 fold
  increase of the level of certain snRNP components: ≥ 3 fold
  increase of the level of transcription regulators/co-factors: ≥ 2 fold

## CC1(C)C(/C=C/C=C/C=C/C=C2\N(CCCCS(=O)(=O)O)c3ccc4ccccc4c3C2(C)C)=[N+](CCCCS(=O)(=O)[O-])c2ccc3ccccc3c21 [free cyanine dye, indocyanine green]
LoVo cells
  antiproliferative efficacy: did not exhibit any antiproliferative effects

## C=CC(=O)Nc1cc2c(NCc3cccc4ccccc34)ncnc2cc1NC(=O)CCl [C1F]
[1]
  viability of the cells with respect to the control: reduce the viability of the cells

## C=CC(=O)Nc1cc2c(Nc3ccc(Br)cc3)ncnc2cc1NC(=O)CCl [A1F]
[1]
  viability of the cells with respect to the control: reduce the viability of the cells
